The target of assay [1] is T1, N-acylglucosamine-2-epimerase (E.C. 5.1.3.8) (Sus scrofa, UniProt P17560).
T1 sequence (P17560 1-402): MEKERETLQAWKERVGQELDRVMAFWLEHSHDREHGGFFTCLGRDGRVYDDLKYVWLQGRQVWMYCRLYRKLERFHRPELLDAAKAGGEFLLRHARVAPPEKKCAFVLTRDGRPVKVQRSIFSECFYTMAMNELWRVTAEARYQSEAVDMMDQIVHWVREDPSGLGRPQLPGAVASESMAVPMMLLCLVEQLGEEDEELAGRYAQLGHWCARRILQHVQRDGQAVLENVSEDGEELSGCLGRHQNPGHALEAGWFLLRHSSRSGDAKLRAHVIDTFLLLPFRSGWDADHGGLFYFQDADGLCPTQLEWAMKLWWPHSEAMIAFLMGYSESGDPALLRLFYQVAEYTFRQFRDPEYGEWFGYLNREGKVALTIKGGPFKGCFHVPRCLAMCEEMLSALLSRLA
In words: relative activity of the epimerase (isomerization of GlcNAc to ManNAc) in the presence of pyruvate or Neu5Ac. It is filed as biochemical. The following applies: as a function of the concentration of the inhibiting substance (FIG. 2A).

The target of assay [2] is N-acetylneuraminic acid pyruvate lyase (E.C. 4.1.3.3) (Escherichia coli, UniProt P0A6L4). Nature of the assay: reverse reaction (cleavage of Neu5Ac) by the lyase in the presence of pyruvate. It is filed as biochemical. To be noted: considerable excess of pyruvate in comparison with the Neu5Ac formed (FIG. 4). From the text:
Because of the large excess of pyruvate, subsequent conversion of the ManNAc to Neu5Ac is promoted.
The Neu5Ac formed is, in accordance with the precision of the equilibrium, subject to more or less strong renewed cleavage by the reverse reaction. Although this reaction is inhibited by an excess of pyruvate (see FIG. 4), it appears advantageous continuously to pass reaction medium from the EMR over an ion exchange column and recycle the rest into the reactor. Alternate use of two columns is advantageous.

N-acetylneuraminic acid pyruvate lyase (E.C. 4.1.3.3), sequence (P0A6L4 whole entry): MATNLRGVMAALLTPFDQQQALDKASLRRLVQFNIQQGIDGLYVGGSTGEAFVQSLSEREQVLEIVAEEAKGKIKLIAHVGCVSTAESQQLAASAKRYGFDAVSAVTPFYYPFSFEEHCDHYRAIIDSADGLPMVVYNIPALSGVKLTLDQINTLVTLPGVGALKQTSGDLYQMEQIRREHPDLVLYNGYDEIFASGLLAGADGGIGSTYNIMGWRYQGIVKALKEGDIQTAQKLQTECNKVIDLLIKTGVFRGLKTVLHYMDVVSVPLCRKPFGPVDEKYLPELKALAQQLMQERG

With `CC(=O)N[C@H]1[C@H]([C@H](O)[C@H](O)CO)OC(O)(C(=O)O)C[C@@H]1O` (stereo partly drawn) [N-acetylneuraminic acid], in assay [1], the “inhibition of the epimerase-catalysed isomerization of GlcNAc to ManNAc” value is reported as “inhibiting effect”. Regarding `CC(=O)C(=O)O` [pyruvic acid], the “inhibition of the epimerase-catalysed isomerization of GlcNAc to ManNAc” value in assay [1] is given as “increasingly inhibited”. Moreover, in assay [2], the “inhibition of the reverse reaction of Neu5Ac formation” value is reported as “strongly inhibited”.

(Values after patent US5071750A, “Enzymatic process for preparing N-acetylneuraminic acid” (Forschungszentrum Juelich GmbH, priority 1989, dated 1991).)
